In brackets after ≈: the same amount, converted by molar mass. Like-named read-outs stand apart in the source and are kept apart here.
Tested on: A. fum.
Test: In vitro antifungal MIC, NCCLS M38P broth method in RPMI 1640/MOPS pH 7
Type: cell-based, Aspergillus fumigatus
Details: for MIC: Aspergillus fumigatus
From the text: The in vitro evaluation of the antifungal activity of the compound of this invention (as shown in Table I) can be performed by determining the minimum inhibitory concentration (MIC) which is the concentration of the test compound in Rosewell Park Memorial Institute (RPMI) 1640 liquid medium buffered with 3-(Morpholino)propane sulfonic acid (MOPS) to pH 7, at which there is significant inhibition of the particular fungi. In practice the National Committee for Clinical Laboratory Standard (NCCLS) M27A document for Candida and Cryptococcus and M38P for Aspergillus was used to determine the MIC and readings recorded only when the Quality Control results fell into the acceptable range. After MIC results had been recorded, 100 μL from each of the well showing no growth was spread over Sabouraud Dextrose Agar (SDA) to determine the minimum fungicidal concentration (MFC).

[1] = A. fumigatus strain 1008, RPMI 1640, MOPS pH 7, read-out: MIC (A. fum.) 1008
[2] = A. fumigatus strain Si-l, RPMI 1640, MOPS pH 7, read-out: MIC (A. fum.) Si-l
[3] = A. fumigatus strain 1008, RPMI 1640, MOPS pH 7
[4] = A. fumigatus strain Si-l, RPMI 1640, MOPS pH 7
[5] = pH 7, read-out: MIC (A. fum.) 1008
[6] = pH 7, read-out: MIC (A. fum.) Si-l

Compound | MIC [1] | MIC [2] | MIC (A. fum.) 1008 [3] | MIC (A. fum.) Si-l [4] | also measured
C[C@@H](N(N)C(=S)Nc1ccc(OCC(F)(F)C(F)F)cc1)[C@](O)(Cn1cncn1)c1ccc(F)cc1F [Compound No. 31, 2-[(1R,2R)-2-(2,4-difluorophenyl)-2-hydroxy-1-methyl-3-(1H-1,2,4-triazol-1-yl)propyl]-4-[4-(2,2,3,3-tetrafluoropropoxy)phenyl]thiosemicarbazide] | 1 µg/mL (≈ 1.82 µM) | 0.25 µg/mL (≈ 0.456 µM) |  |  | 
C[C@@H](N(NC(=O)OC(C)(C)C)C(=S)Nc1ccc(OCC(F)(F)C(F)F)cc1)[C@](O)(Cn1cncn1)c1ccc(F)cc1F [Compound No. 7, 1-t-Butoxycarbonyl-2-[(1R,2R)-2-(2,4-difluorophenyl)-2-hydroxy-1-methyl-3-(1H-1,2,4-triazol-1-yl)propyl]-4-[4-(2,2,3,3-tetrafluoropropoxy)phenyl]thiosemicarbazide] | 4 µg/mL (≈ 6.17 µM) | 4 µg/mL (≈ 6.17 µM) |  |  | 
COC(=O)C(CCSC)n1cnn([C@H](C)[C@](O)(Cn2cncn2)c2ccc(F)cc2F)c1=S (stereo partly drawn) [Compound No. 52, Methyl-2-methylthioethyl-2-[[(1R,2R)-2-(2,4-difluorophenyl)-2-hydroxy-1-methyl-3-(1H-1,2,4-triaolyl)propyl]-(2H,4H)-1,2,4-triazol-3-thion-4-yl]acetate] |  |  | >16 µg/mL | >16 µg/mL | 
COc1ccc(NC(=S)N(NC(=O)OC(C)(C)C)[C@H](C)[C@](O)(Cn2cncn2)c2ccc(F)cc2F)c(OC)c1 [Compound No. 4, 1-t-Butoxycarbonyl-2-[(1R,2R)-2-(2,4-difluorophenyl)-2-hydroxy-1-methyl-3-(1H-1,2,4-triazol-1-yl)propyl]-4-[2,4-dimethoxyphenyl]thiosemicarbazide] | > 16 µg/mL | > 16 µg/mL |  |  | 
C[C@@H](N(NC(=O)OC(C)(C)C)C(=S)Nc1ccc(-n2cnnn2)cc1)[C@](O)(Cn1cncn1)c1ccc(F)cc1F [Compound No. 9, 1-t-Butoxycarbonyl-2-[(1R,2R)-2-(2,4-difluorophenyl)-2-hydroxy-1-methyl-3-(1H-1,2,4-triazol-1-yl)propyl]-4-[4-([1,2,3,4-tetrazol-1-yl])phenyl]thiosemicarbazide] | > 16 µg/mL | > 16 µg/mL |  |  | 
COC(=O)C(c1ccccc1)n1cnn([C@H](C)[C@](O)(Cn2cncn2)c2ccc(F)cc2F)c1=S (stereo partly shown) [Compound No. 50] |  |  | >16 µg/mL | >16 µg/mL | 
C[C@@H](N(NC(=O)OC(C)(C)C)C(=S)Nc1cccc2ccccc12)[C@](O)(Cn1cncn1)c1ccc(F)cc1F [Compound No. 14] |  |  | >16 µg/mL | >16 µg/mL | 
C[C@@H](n1ncn(-c2ccc(-n3ncnn3)cc2)c1=S)[C@](O)(Cn1cncn1)c1ccc(F)cc1F [Compound No. 44] |  |  | 2 µg/mL (≈ 4.03 µM) | 2 µg/mL (≈ 4.03 µM) | 
C[C@@H](N(NC(=O)OC(C)(C)C)C(=S)Nc1ccc([N+](=O)[O-])cc1)[C@](O)(Cn1cncn1)c1ccc(F)cc1F [Compound No. 8, 1-t-Butoxycarbonyl-2-[(1R,2R)-2-(2,4difluorophenyl)-2-hydroxy-1-methyl-3-(1H-1,2,4-triazol-1-yl)propyl]-4-[4-nitrophenyl]thiosemicarbazide] |  |  |  |  | MIC [5]: > 16 µg/mL; MIC [6]: > 16 µg/mL
C[C@@H](N(NC(=O)OC(C)(C)C)C(=S)Nc1ccc(OC2CCCCO2)cc1)[C@](O)(Cn1cncn1)c1ccc(F)cc1F (stereo partly drawn) [Compound No. 5, 1-t-Butoxycarbonyl-2-[(1R,2R)-2-(2,4-difluorophenyl)-2-hydroxy-1-methyl-3-(1H-1,2,4-triazol-1-yl)propyl]-4-[4-(tetrahydropyranyloxy)phenyl]thiosemicarbazide] | > 16 µg/mL | > 16 µg/mL |  |  | 
C[C@@H](N(N)C(=S)Nc1ccc(O)cc1)[C@](O)(Cn1cncn1)c1ccc(F)cc1F [Compound No. 30, 2-[(1R,2R)-2-(2,4-difluorophenyl)-2-hydroxy-1-methyl-3-(1H-1,2,4-triazol-1-yl)propyl]-4-[4-hydroxyphenyl]thiosemicarbazide] |  |  |  |  | MIC [5]: > 16 µg/mL; MIC [6]: > 16 µg/mL
